For this data set, the target named is UBE2K. The experiment in a line: reporter assay of Huesken 2005. To be noted: siRNA. Background: In a reporter assay the amount or activity of a reporter protein is the signal.

Oligonucleotides are given in HELM: sugar(base)linkage, 5' to 3'; d 2'-deoxyribose, r ribose, m 2'-O-methylribose, p phosphate. ss, as = sense and antisense strand
Further: test concentration or dose not given here.

“RNA1{r(A)p.r(A)p.r(A)p.r(U)p.r(C)p.r(C)p.r(C)p.r(G)p.r(A)p.r(A)p.r(A)p.r(U)p.r(G)p.r(U)p.r(U)p.r(C)p.r(A)p.r(A)p.r(A)p.d(T)p.d(T)}|RNA2{r(U)p.r(U)p.r(U)p.r(G)p.r(A)p.r(A)p.r(C)p.r(A)p.r(U)p.r(U)p.r(U)p.r(C)p.r(G)p.r(G)p.r(G)p.r(A)p.r(U)p.r(U)p.r(U)p.d(T)p.d(G)}$$$RNA1{StrandType:ss}|RNA2{StrandType:as}$” came in with a normalised inhibition (eCFP-eYFP dual reporter) of 73.8%.

Turning to “RNA1{r(A)p.r(U)p.r(C)p.r(A)p.r(A)p.r(U)p.r(G)p.r(G)p.r(G)p.r(C)p.r(A)p.r(G)p.r(C)p.r(U)p.r(G)p.r(C)p.r(A)p.r(A)p.r(U)p.d(T)p.d(T)}|RNA2{r(A)p.r(U)p.r(U)p.r(G)p.r(C)p.r(A)p.r(G)p.r(C)p.r(U)p.r(G)p.r(C)p.r(C)p.r(C)p.r(A)p.r(U)p.r(U)p.r(G)p.r(A)p.r(U)p.d(C)p.d(T)}$$$RNA1{StrandType:ss}|RNA2{StrandType:as}$”, the normalised inhibition (eCFP-eYFP dual reporter) is 48.4%.

Regarding “RNA1{r(A)p.r(A)p.r(G)p.r(G)p.r(A)p.r(G)p.r(G)p.r(A)p.r(A)p.r(G)p.r(A)p.r(U)p.r(A)p.r(C)p.r(C)p.r(A)p.r(A)p.r(C)p.r(U)p.d(T)p.d(T)}|RNA2{r(A)p.r(G)p.r(U)p.r(U)p.r(G)p.r(G)p.r(U)p.r(A)p.r(U)p.r(C)p.r(U)p.r(U)p.r(C)p.r(C)p.r(U)p.r(C)p.r(C)p.r(U)p.r(U)p.d(C)p.d(A)}$$$RNA1{StrandType:ss}|RNA2{StrandType:as}$”, the normalised inhibition (eCFP-eYFP dual reporter) was 68.1%.

Substance “RNA1{r(C)p.r(A)p.r(G)p.r(U)p.r(A)p.r(C)p.r(A)p.r(A)p.r(A)p.r(C)p.r(A)p.r(A)p.r(A)p.r(A)p.r(U)p.r(C)p.r(C)p.r(C)p.r(G)p.d(T)p.d(T)}|RNA2{r(C)p.r(G)p.r(G)p.r(G)p.r(A)p.r(U)p.r(U)p.r(U)p.r(U)p.r(G)p.r(U)p.r(U)p.r(U)p.r(G)p.r(U)p.r(A)p.r(C)p.r(U)p.r(G)p.d(A)p.d(T)}$$$RNA1{StrandType:ss}|RNA2{StrandType:as}$” displayed a normalised inhibition (eCFP-eYFP dual reporter) of 70.1%.

“RNA1{r(U)p.r(U)p.r(U)p.r(U)p.r(A)p.r(C)p.r(A)p.r(G)p.r(A)p.r(A)p.r(U)p.r(U)p.r(A)p.r(A)p.r(G)p.r(A)p.r(G)p.r(G)p.r(A)p.d(T)p.d(T)}|RNA2{r(U)p.r(C)p.r(C)p.r(U)p.r(C)p.r(U)p.r(U)p.r(A)p.r(A)p.r(U)p.r(U)p.r(C)p.r(U)p.r(G)p.r(U)p.r(A)p.r(A)p.r(A)p.r(A)p.d(T)p.d(T)}$$$RNA1{StrandType:ss}|RNA2{StrandType:as}$” came in with a normalised inhibition (eCFP-eYFP dual reporter) of 47.6%.

As to “RNA1{r(U)p.r(G)p.r(U)p.r(A)p.r(G)p.r(A)p.r(U)p.r(G)p.r(A)p.r(G)p.r(A)p.r(A)p.r(U)p.r(U)p.r(U)p.r(U)p.r(A)p.r(C)p.r(A)p.d(T)p.d(T)}|RNA2{r(U)p.r(G)p.r(U)p.r(A)p.r(A)p.r(A)p.r(A)p.r(U)p.r(U)p.r(C)p.r(U)p.r(C)p.r(A)p.r(U)p.r(C)p.r(U)p.r(A)p.r(C)p.r(A)p.d(A)p.d(G)}$$$RNA1{StrandType:ss}|RNA2{StrandType:as}$”, the normalised inhibition (eCFP-eYFP dual reporter) was 89.5%.

Turning to “RNA1{r(A)p.r(A)p.r(A)p.r(U)p.r(A)p.r(G)p.r(C)p.r(A)p.r(G)p.r(G)p.r(A)p.r(C)p.r(C)p.r(U)p.r(C)p.r(C)p.r(A)p.r(G)p.r(A)p.d(T)p.d(T)}|RNA2{r(U)p.r(C)p.r(U)p.r(G)p.r(G)p.r(A)p.r(G)p.r(G)p.r(U)p.r(C)p.r(C)p.r(U)p.r(G)p.r(C)p.r(U)p.r(A)p.r(U)p.r(U)p.r(U)p.d(C)p.d(T)}$$$RNA1{StrandType:ss}|RNA2{StrandType:as}$”, the normalised inhibition (eCFP-eYFP dual reporter) was 65.4%.

Turning to “RNA1{r(G)p.r(U)p.r(U)p.r(U)p.r(G)p.r(G)p.r(A)p.r(U)p.r(A)p.r(U)p.r(C)p.r(C)p.r(U)p.r(G)p.r(A)p.r(A)p.r(A)p.r(G)p.r(A)p.d(T)p.d(T)}|RNA2{r(U)p.r(C)p.r(U)p.r(U)p.r(U)p.r(C)p.r(A)p.r(G)p.r(G)p.r(A)p.r(U)p.r(A)p.r(U)p.r(C)p.r(C)p.r(A)p.r(A)p.r(A)p.r(C)p.d(A)p.d(A)}$$$RNA1{StrandType:ss}|RNA2{StrandType:as}$”, the normalised inhibition (eCFP-eYFP dual reporter) amounted to 87.1%.

Turning to “RNA1{r(U)p.r(C)p.r(C)p.r(A)p.r(G)p.r(A)p.r(C)p.r(A)p.r(C)p.r(A)p.r(C)p.r(C)p.r(A)p.r(U)p.r(A)p.r(U)p.r(G)p.r(A)p.r(A)p.d(T)p.d(T)}|RNA2{r(U)p.r(U)p.r(C)p.r(A)p.r(U)p.r(A)p.r(U)p.r(G)p.r(G)p.r(U)p.r(G)p.r(U)p.r(G)p.r(U)p.r(C)p.r(U)p.r(G)p.r(G)p.r(A)p.d(G)p.d(G)}$$$RNA1{StrandType:ss}|RNA2{StrandType:as}$”, the normalised inhibition (eCFP-eYFP dual reporter) stood at 73.9%.

In the case of “RNA1{r(A)p.r(G)p.r(G)p.r(G)p.r(G)p.r(C)p.r(U)p.r(A)p.r(U)p.r(U)p.r(U)p.r(G)p.r(U)p.r(U)p.r(U)p.r(G)p.r(G)p.r(A)p.r(U)p.d(T)p.d(T)}|RNA2{r(A)p.r(U)p.r(C)p.r(C)p.r(A)p.r(A)p.r(A)p.r(C)p.r(A)p.r(A)p.r(A)p.r(U)p.r(A)p.r(G)p.r(C)p.r(C)p.r(C)p.r(C)p.r(U)p.d(G)p.d(T)}$$$RNA1{StrandType:ss}|RNA2{StrandType:as}$”, the normalised inhibition (eCFP-eYFP dual reporter) was 71%.

In the case of “RNA1{r(U)p.r(A)p.r(G)p.r(A)p.r(U)p.r(C)p.r(U)p.r(U)p.r(G)p.r(U)p.r(A)p.r(G)p.r(A)p.r(U)p.r(G)p.r(A)p.r(G)p.r(A)p.r(A)p.d(T)p.d(T)}|RNA2{r(U)p.r(U)p.r(C)p.r(U)p.r(C)p.r(A)p.r(U)p.r(C)p.r(U)p.r(A)p.r(C)p.r(A)p.r(A)p.r(G)p.r(A)p.r(U)p.r(C)p.r(U)p.r(A)p.d(C)p.d(T)}$$$RNA1{StrandType:ss}|RNA2{StrandType:as}$”, the normalised inhibition (eCFP-eYFP dual reporter) worked out at 85.7%.

The substance “RNA1{r(A)p.r(G)p.r(G)p.r(A)p.r(U)p.r(G)p.r(C)p.r(U)p.r(G)p.r(U)p.r(A)p.r(G)p.r(U)p.r(A)p.r(G)p.r(C)p.r(A)p.r(A)p.r(A)p.d(T)p.d(T)}|RNA2{r(U)p.r(U)p.r(U)p.r(G)p.r(C)p.r(U)p.r(A)p.r(C)p.r(U)p.r(A)p.r(C)p.r(A)p.r(G)p.r(C)p.r(A)p.r(U)p.r(C)p.r(C)p.r(U)p.d(G)p.d(T)}$$$RNA1{StrandType:ss}|RNA2{StrandType:as}$” yielded a normalised inhibition (eCFP-eYFP dual reporter) of 92.1%.

Take “RNA1{r(G)p.r(A)p.r(G)p.r(G)p.r(A)p.r(A)p.r(G)p.r(A)p.r(U)p.r(A)p.r(C)p.r(C)p.r(A)p.r(A)p.r(C)p.r(U)p.r(A)p.r(G)p.r(A)p.d(T)p.d(T)}|RNA2{r(U)p.r(C)p.r(U)p.r(A)p.r(G)p.r(U)p.r(U)p.r(G)p.r(G)p.r(U)p.r(A)p.r(U)p.r(C)p.r(U)p.r(U)p.r(C)p.r(C)p.r(U)p.r(C)p.d(C)p.d(T)}$$$RNA1{StrandType:ss}|RNA2{StrandType:as}$”: the normalised inhibition (eCFP-eYFP dual reporter) is 79.3%.

“RNA1{r(G)p.r(G)p.r(G)p.r(G)p.r(C)p.r(U)p.r(A)p.r(U)p.r(U)p.r(U)p.r(G)p.r(U)p.r(U)p.r(U)p.r(G)p.r(G)p.r(A)p.r(U)p.r(A)p.d(T)p.d(T)}|RNA2{r(U)p.r(A)p.r(U)p.r(C)p.r(C)p.r(A)p.r(A)p.r(A)p.r(C)p.r(A)p.r(A)p.r(A)p.r(U)p.r(A)p.r(G)p.r(C)p.r(C)p.r(C)p.r(C)p.d(T)p.d(G)}$$$RNA1{StrandType:ss}|RNA2{StrandType:as}$”: the normalised inhibition (eCFP-eYFP dual reporter) was 81.2%.

Consider “RNA1{r(C)p.r(C)p.r(A)p.r(G)p.r(A)p.r(A)p.r(A)p.r(C)p.r(A)p.r(U)p.r(A)p.r(C)p.r(C)p.r(C)p.r(A)p.r(U)p.r(U)p.r(U)p.r(A)p.d(T)p.d(T)}|RNA2{r(U)p.r(A)p.r(A)p.r(A)p.r(U)p.r(G)p.r(G)p.r(G)p.r(U)p.r(A)p.r(U)p.r(G)p.r(U)p.r(U)p.r(U)p.r(C)p.r(U)p.r(G)p.r(G)p.d(T)p.d(A)}$$$RNA1{StrandType:ss}|RNA2{StrandType:as}$”, for which the normalised inhibition (eCFP-eYFP dual reporter) was determined as 72.4%.

Consider “RNA1{r(A)p.r(U)p.r(C)p.r(U)p.r(U)p.r(G)p.r(U)p.r(A)p.r(G)p.r(A)p.r(U)p.r(G)p.r(A)p.r(G)p.r(A)p.r(A)p.r(U)p.r(U)p.r(U)p.d(T)p.d(T)}|RNA2{r(A)p.r(A)p.r(A)p.r(U)p.r(U)p.r(C)p.r(U)p.r(C)p.r(A)p.r(U)p.r(C)p.r(U)p.r(A)p.r(C)p.r(A)p.r(A)p.r(G)p.r(A)p.r(U)p.d(C)p.d(T)}$$$RNA1{StrandType:ss}|RNA2{StrandType:as}$”, for which the normalised inhibition (eCFP-eYFP dual reporter) amounted to 81.3%.

“RNA1{r(U)p.r(C)p.r(C)p.r(G)p.r(G)p.r(U)p.r(U)p.r(U)p.r(A)p.r(U)p.r(C)p.r(A)p.r(C)p.r(U)p.r(A)p.r(A)p.r(A)p.r(A)p.r(U)p.d(T)p.d(T)}|RNA2{r(A)p.r(U)p.r(U)p.r(U)p.r(U)p.r(A)p.r(G)p.r(U)p.r(G)p.r(A)p.r(U)p.r(A)p.r(A)p.r(A)p.r(C)p.r(C)p.r(G)p.r(G)p.r(A)p.d(C)p.d(C)}$$$RNA1{StrandType:ss}|RNA2{StrandType:as}$” showed a normalised inhibition (eCFP-eYFP dual reporter) of 73%.

For “RNA1{r(A)p.r(G)p.r(G)p.r(A)p.r(G)p.r(G)p.r(A)p.r(A)p.r(G)p.r(A)p.r(U)p.r(A)p.r(C)p.r(C)p.r(A)p.r(A)p.r(C)p.r(U)p.r(A)p.d(T)p.d(T)}|RNA2{r(U)p.r(A)p.r(G)p.r(U)p.r(U)p.r(G)p.r(G)p.r(U)p.r(A)p.r(U)p.r(C)p.r(U)p.r(U)p.r(C)p.r(C)p.r(U)p.r(C)p.r(C)p.r(U)p.d(T)p.d(C)}$$$RNA1{StrandType:ss}|RNA2{StrandType:as}$”, the normalised inhibition (eCFP-eYFP dual reporter) worked out at 75.4%.

“RNA1{r(A)p.r(G)p.r(U)p.r(A)p.r(G)p.r(A)p.r(U)p.r(C)p.r(U)p.r(U)p.r(G)p.r(U)p.r(A)p.r(G)p.r(A)p.r(U)p.r(G)p.r(A)p.r(G)p.d(T)p.d(T)}|RNA2{r(C)p.r(U)p.r(C)p.r(A)p.r(U)p.r(C)p.r(U)p.r(A)p.r(C)p.r(A)p.r(A)p.r(G)p.r(A)p.r(U)p.r(C)p.r(U)p.r(A)p.r(C)p.r(U)p.d(T)p.d(T)}$$$RNA1{StrandType:ss}|RNA2{StrandType:as}$”: the normalised inhibition (eCFP-eYFP dual reporter) was found to be 88.2%.

“RNA1{r(A)p.r(U)p.r(U)p.r(G)p.r(U)p.r(C)p.r(A)p.r(U)p.r(U)p.r(G)p.r(C)p.r(A)p.r(A)p.r(G)p.r(C)p.r(A)p.r(C)p.r(U)p.r(A)p.d(T)p.d(T)}|RNA2{r(U)p.r(A)p.r(G)p.r(U)p.r(G)p.r(C)p.r(U)p.r(U)p.r(G)p.r(C)p.r(A)p.r(A)p.r(U)p.r(G)p.r(A)p.r(C)p.r(A)p.r(A)p.r(U)p.d(A)p.d(A)}$$$RNA1{StrandType:ss}|RNA2{StrandType:as}$” came in with a normalised inhibition (eCFP-eYFP dual reporter) of 85.4%.

Source of the values: the OligoGym collection.
